Assay results: patent US8338638B2, “Antimicrobial derivatives of anacardic acid and process for preparing the same” (Unichem Laboratories Ltd., priority 2006, dated 2012)
≈ marks a conversion by molar mass, not a printed value. Like-named read-outs stand apart in the source and are kept apart here.

Tests used:
MRSA [1] = assay: Broth assay, antibacterial activity (MIC/MBC) against MRSA; type: cell-based, Methicillin resistant Stapphalococcus aureus; settings: Staphylococcus aureus; for MIC: 24 h
Protocol: (§1) The invention specifically relates to the process for the preparation of antimicrobial derivatives of saturated anacardic acid (C15:0). The mixture of anacardic acids chromatographically purified from CNSL was hydrogenated using Pd—C to get the saturated anacardic acid (C15:0). Said derivatives were prepared by adopting the techniques used in synthetic chemistry for nitration, halogenation and acetylation of various organic compounds. The synthesized derivatives were assayed for anti bacterial activity against Stapphalococcus aureus and Methicillin resistant Stapphalococcus aureus and Enterococcus fecalis by the broth assay used for antibiotic susceptibility tests and the minimum inhibitory concentration (MIC) and minimum bactericidal concentration (MBC) determined.
(§2) Procedure for Antimicrobial Testing:
(§3) The bacterial colonies from Luria-Bertani (LB) agar plates were inoculated into sterile LB broth and incubated in an incubator shaker for 12 h. This culture was diluted such that the innoculum when added to the test broth would correspond to 10^5 colony forming units (CFU). The broth assays were done in sterile culture tubes containing 5 mL of LB medium. The test compounds dissolved in ethanol and controls were added to these tubes and then the innoculum was added and the tubes incubated at 37° C. for 24 h. After 24 h incubation the OD600 was recorded and then plated on LB agar plates and incubated fore 24 h at 37° C. The colonies were counted and the minimum inhibitory concentration (MIC) and minimum bactericidal concentration (MBC) calculated. The MIC is determined by the minimum concentration of the sample at which no growth was observed as determined by measuring the OD600. The MBC is determined by the concentration at which there is a reduction in the cfu in the broth assay from 10^5 to 10^3 counted after plating on LB agar plates.

E. fecalis = assay: Broth assay, antibacterial activity (MIC/MBC) against E. fecalis; type: cell-based; settings: Enterococcus; for MIC: 24 h
Protocol: as §1, §2, §3

Sa (NCTC8325) = assay: Broth assay, antibacterial activity (MIC/MBC) against Sa (NCTC8325); type: cell-based, Stapphalococcus aureus; settings: for MIC: 24 h
Protocol: as §1, §2, §3

MRSA [2] = settings: against MRSA; Kube et al; cited from earlier work
[3] = LB broth, 37° C., no growth by OD600, read-out: MIC
[4] = reduction in cfu from 10^5 to 10^3 after plating on LB agar, read-out: MBC
[5] = E. fecalis, LB broth, 37° C., no growth by OD600, read-out: MIC
[6] = E. fecalis, reduction in cfu from 10^5 to 10^3 after plating on LB agar, read-out: MBC
[7] = Sa (NCTC8325), LB broth, 37° C., no growth by OD600, read-out: MIC
[8] = Sa (NCTC8325), reduction in cfu from 10^5 to 10^3 after plating on LB agar, read-out: MBC

| SMILES | MIC (MRSA [1]; [3]) | MBC (MRSA [1]; [4]) | MIC (E. fecalis; [5]) | MBC (E. fecalis; [6]) | MIC (Sa (NCTC8325); [7]) | MBC (Sa (NCTC8325); [8]) | minimum inhibitory concentration (MIC) (MRSA [2]) | MBC (MRSA [1]) | MIC (MRSA [1]) | MBC (E. fecalis) | MIC (E. fecalis) | MBC (Sa (NCTC8325)) | MIC (Sa (NCTC8325)) |
| --- | --- | --- | --- | --- | --- | --- | --- | --- | --- | --- | --- | --- | --- |
| CCCCCCCCCCCCCCCc1c(Br)ccc(O)c1C(=O)O [DBAA, 5-Bromo-6-pentadecyl-2-hydroxybenzoic acid] | > 20 µg/mL | > 20 µg/mL | 6 µg/mL (≈ 14 µM) | 6 µg/mL (≈ 14 µM) | > 10 µg/mL | > 10 µg/mL | – | – | – | – | – | – | – |
| CCCCCCCCCCCCCCCc1c(Br)ccc(OC)c1C(=O)O [MDBAA, 5Bromo-6-pentadecyl-2-methoxybenzoic acid] | 0.5 µg/mL (≈ 1.13 µM) | 4 µg/mL (≈ 9.06 µM) | 1 µg/mL (≈ 2.27 µM) | 3 µg/mL (≈ 6.8 µM) | 3 to 5 µg/mL (≈ 6.8 to 11.3 µM) | 5 µg/mL (≈ 11.3 µM) | – | – | – | – | – | – | – |
| CCCCCCCCCCCCCCCc1cccc(OC)c1C(=O)NC1C(=O)N2C1SC(C)(C)C2C(=O)O (centres unmarked) [MAA-APA] | 10 to 20 µg/mL (≈ 17.8 to 35.7 µM) | > 20 µg/mL | 6 µg/mL (≈ 10.7 µM) | > 10 µg/mL | > 10 µg/mL | > 10 µg/mL | – | – | – | – | – | – | – |
| C=C[C@@](C)(/C=C/c1ccc(OC(=O)c2c(CCCCCCCCCCCCCCC)cccc2OC)cc1)CCC=C(C)C [MAA-Ba] | > 20 µg/mL | > 20 µg/mL | 6 µg/mL (≈ 9.98 µM) | > 10 µg/mL | > 10 µg/mL | > 10 µg/mL | – | – | – | – | – | – | – |
| CCCCCCCCCCCCCCCc1cc([N+](=O)[O-])c([N+](=O)[O-])c(OC(C)=O)c1C(=O)O [ANAA, 3,4-Dinitro-6-pentadecyl-2-acetyloxybenzoic acid] | 2 µg/mL (≈ 4.16 µM) | > 10 µg/mL | 0.5 µg/mL (≈ 1.04 µM) | 7 µg/mL (≈ 14.6 µM) | 1 µg/mL (≈ 2.08 µM) | > 10 µg/mL | – | – | – | – | – | – | – |
| CCCCCCCCCCCCCCCc1cccc(OC)c1C(=O)Nc1ccc([N+](=O)[O-])cc1 [MAA-PNA] | > 20 µg/mL | > 20 µg/mL | > 10 µg/mL | > 10 µg/mL | > 10 µg/mL | > 10 µg/mL | – | – | – | – | – | – | – |
| CCCCCCCCCCCCCCCc1cccc(OC)c1C(=O)NC(Cc1ccc(O)cc1)C(=O)O (centres unmarked) [MAAY] | 2 µg/mL (≈ 3.8 µM) | 10 µg/mL (≈ 19 µM) | 6 µg/mL (≈ 11.4 µM) | > 10 µg/mL | 3 to 5 µg/mL (≈ 5.71 to 9.51 µM) | > 10 µg/mL | – | – | – | – | – | – | – |
| C=CCC=CCC=CCCCCCCCc1cccc(O)c1C(=O)O [triene (C15:3)] | – | – | – | – | – | – | 6.5 µg/mL (≈ 19 µM) | – | – | – | – | – | – |
| CCCCCCCCCCCCCCCc1cc([N+](=O)[O-])c([N+](=O)[O-])c(O)c1C(=O)O [NAA, 3,4-Dinitro-6-pentadecyl-2-hydroxybenzoic acid] | – | – | – | – | – | – | – | 10 µg/mL (≈ 22.8 µM) | 1 µg/mL (≈ 2.28 µM) | 7 µg/mL (≈ 16 µM) | 0.5 µg/mL (≈ 1.14 µM) | 7 to 8 µg/mL (≈ 16 to 18.2 µM) | 1 µg/mL (≈ 2.28 µM) |
| CCCCCCCCCCCCCCCc1c([N+](=O)[O-])cc([N+](=O)[O-])c(O)c1C(=O)O [DAA, 3,5-Dinitro-6-pentadecyl-2-hydroxybenzoic acid] | – | – | – | – | – | – | – | 6 µg/mL (≈ 13.7 µM) | 3 µg/mL (≈ 6.84 µM) | 6 µg/mL (≈ 13.7 µM) | 6 µg/mL (≈ 13.7 µM) | 3 to 5 µg/mL (≈ 6.84 to 11.4 µM) | 2 µg/mL (≈ 4.56 µM) |
| CCCCCCCCCCCCCCCc1cccc(OC)c1C(=O)NC(Cc1ccccc1)C(=O)O (centres unmarked) [MAA-F] | > 20 µg/mL | > 20 µg/mL | 6 µg/mL (≈ 11.8 µM) | > 10 µg/mL | > 10 µg/mL | > 10 µg/mL | – | – | – | – | – | – | – |
| CCCCCCCCCCCCCCCc1c(Br)ccc(OC(C)=O)c1C(=O)O [ADBAA, 5-Bromo-6-pentadecyl-2-acetyloxybenzoic acid] | 9 to 10 µg/mL (≈ 19.2 to 21.3 µM) | > 10 µg/mL | 1 µg/mL (≈ 2.13 µM) | 3 µg/mL (≈ 6.39 µM) | > 10 µg/mL | > 10 µg/mL | – | – | – | – | – | – | – |
| CCCCCCCCCCCCCCCc1c([N+](=O)[O-])cc([N+](=O)[O-])c(OC(C)=O)c1C(=O)O [ADAA, 3,5-Dinitro-6-pentadecyl-2-acetyloxybenzoic acid] | 4 µg/mL (≈ 8.32 µM) | 10 µg/mL (≈ 20.8 µM) | 6 µg/mL (≈ 12.5 µM) | 6 µg/mL (≈ 12.5 µM) | 2 µg/mL (≈ 4.16 µM) | 6 µg/mL (≈ 12.5 µM) | – | – | – | – | – | – | – |
| CCCCCCCCCCCCCCCc1cccc(OC)c1C(=O)O [MAA, 2-Methoxy-6-Pentadecyl-benzoic acid] | 1 µg/mL (≈ 2.76 µM) | 4 µg/mL (≈ 11 µM) | 1 µg/mL (≈ 2.76 µM) | 6 µg/mL (≈ 16.5 µM) | 1 µg/mL (≈ 2.76 µM) | 8 µg/mL (≈ 22.1 µM) | – | – | – | – | – | – | – |
| CCCCCCCCCCCCCCCc1cccc(OC(C)=O)c1C(=O)O [AAA, 6-Pentadecyl-2-acetyloxybenzoic acid] | 2 µg/mL (≈ 5.12 µM) | 6 µg/mL (≈ 15.4 µM) | 1 µg/mL (≈ 2.56 µM) | 6 µg/mL (≈ 15.4 µM) | 6 µg/mL (≈ 15.4 µM) | 7 to 8 µg/mL (≈ 17.9 to 20.5 µM) | – | – | – | – | – | – | – |
| CCCCCCCCCCCCCCCc1c([N+](=O)[O-])cc([N+](=O)[O-])c(OC)c1C(=O)O [MDAA, 3,5-Dinitro-6-pentadecyl-2-Methoxybenzoic acid] | 2 µg/mL (≈ 4.42 µM) | 4 µg/mL (≈ 8.84 µM) | 0.5 µg/mL (≈ 1.1 µM) | 2 µg/mL (≈ 4.42 µM) | 6 µg/mL (≈ 13.3 µM) | 8 µg/mL (≈ 17.7 µM) | – | – | – | – | – | – | – |
| CCCCCCCCCCCCCCCc1cccc(O)c1C(=O)O [AA, 6-pentadecyl salicylic acid, reference compound] | > 50 µg/mL | > 50 µg/mL | 0.5 µg/mL (≈ 1.43 µM) | 6 µg/mL (≈ 17.2 µM) | > 10 µg/mL | > 10 µg/mL | 1600 µg/mL (≈ 4590 µM) | – | – | – | – | – | – |
| CCCCCCCCCCCCCCCc1cccc(OC)c1C(=O)Nc1ccc(C(=O)O)cc1 [MAA-PABA] | > 20 µg/mL | > 20 µg/mL | 6 µg/mL (≈ 12.5 µM) | > 10 µg/mL | > 10 µg/mL | > 10 µg/mL | – | – | – | – | – | – | – |
